Results published in patent publication US4605662A, “1-substituted pyrrolizidine derivatives and antiarrhythmic use thereof” (Suntory Ltd., priority 1982, dated 1986).

Key:
[1] = 50% lethal dose (LD50) by Up and Down Method in mice, and therapeutic index; format: in vivo; details: mouse, in vivo; Up and Down Method; male ddy mice 18 to 22 g
Source text: (§1) The 50% lethal doses (median lethal doses, LD50) were computed by the "Up and Down Method" (Pharmacological Experiment, compiled by Takagi and Ozawa, pp. 204, Nanzando, 1972) using male mice of the ddy strain weighing 18 to 22 g, and the ratios of the LD50 to ED50 values were expressed as the therapuetic indices, as presented in Table 1.

[2] = tested on: ventricular flutter and fibrillation; experiment: Protection against chloroform-induced ventricular arrhythmias in mice (Lawson method), subcutaneous; format: in vivo, ddy strain); details: 30 min before chloroform inhalation, male ddy mice; for ED50 / ED20 / ED40: Mus musculus, sc; for ED50: read-out: ED50 (95% confidence limits), antiarrhythmic activity; for ED20: read-out: ED20, antiarrhythmic activity; for ED40: read-out: ED40, antiarrhythmic activity
Procedure: In accordance with the method described by J. W. Lawson (Journal of Pharmacology and Experimental Therapeutics, vol. 160, pp. 22, 1968), male mice of the ddy strain weighing 16 to 30 g were allowed to inhale chloroform to induce ventricular arrhythmias. At the time when they ceased to breathe, the electrocardiogram of each animal was recorded to observe the ventricular flutter and fibrillation. The abnormalities of the ventricles observed in these animals can be prevented by pretreatment with substances which have antiarrhythmic activity. The compounds of this invention were subcutaneously injected in 4-5 different doses to groups of 29 to 40 mice. Thirty minutes later, the mice were subjected to inhalation of chloroform to induce arrhythmias, and the protection by each dose against the ventricular flutter and fibrillation were expressed as percent. […]

[3] = tested on: male mice of the ddy strain; experiment: 50% lethal dose (LD50) by Up and Down Method in mice, and therapeutic index; format: in vivo; details: LD50/ED50
Source text: as §1

Row | Compound | LD50 [1] | ED50 ([2]; Litchfield and Wilcoxon) | ED20 [2] | ED40 [2] | Therapeutic index (ratio of LD50 to ED50) [3] | ED50 (95% confidence limits), antiarrhythmic activity ([2]; Litchfield and Wilcoxon)
1 | Cc1ccccc1NC(=O)[C@@H]1CCN2CCC[C@@H]12 (relative stereo) | > 500 mg/kg | > 100 mg/kg | 100 mg/kg | – | – | –
2 | O=C(Nc1ccccc1Br)[C@@H]1CCN2CCC[C@@H]12 (relative stereo) [VI] | > 500 mg/kg | > 100 mg/kg | – | 100 mg/kg | – | –
3 | Cc1cc(C)c(NC(=O)[C@@H]2CCN3CCC[C@@H]23)c(C)c1 (relative stereo) [XV] | 394 mg/kg | > 100 mg/kg | 100 mg/kg | – | – | –
4 | O=C(Nc1c(Cl)cccc1Cl)[C@@H]1CCN2CCC[C@@H]12 (relative stereo) [XIII] | 263 mg/kg | 38 mg/kg | – | – | 6.92 | –
5 | COc1ccc(OC)c(NC(=O)[C@@H]2CCN3CCC[C@@H]23)c1 (relative stereo) [XII] | > 500 mg/kg | > 100 mg/kg | – | 100 mg/kg | – | –
6 | COc1ccccc1NC(=O)[C@@H]1CCN2CCC[C@@H]12 (relative stereo) [II] | > 500 mg/kg | 74 mg/kg | – | – | – | –
7 | Cc1cccc(C)c1NC(=O)[C@@H]1CCN2CCC[C@@H]12 (relative stereo) [IX] | 447 mg/kg | 29 mg/kg | – | – | 15.4 | –
8 | O=C(Nc1c(Br)cccc1Br)[C@@H]1CCN2CCC[C@@H]12 (relative stereo) [XIV] | 468 mg/kg | 43 mg/kg | – | – | 10.88 | –
9 | CCc1cccc(CC)c1NC(=O)[C@@H]1CCN2CCC[C@@H]12 (relative stereo) [XI] | 244 mg/kg | 38 mg/kg | – | – | 6.24 | –
10 | Cc1cccc(NC(=O)[C@@H]2CCN3CCC[C@@H]23)c1C (relative stereo) [VII] | > 500 mg/kg | > 100 mg/kg | 100 mg/kg | – | – | –
11 | Cc1cc(C)cc(NC(=O)[C@@H]2CCN3CCC[C@@H]23)c1 (relative stereo) [X] | > 500 mg/kg | 100 mg/kg | > 100 mg/kg | – | – | –
12 | O=C(Nc1ccccc1Cl)[C@@H]1CCN2CCC[C@@H]12 (relative stereo) [V] | 263 mg/kg | > 100 mg/kg | – | – | – | 100 mg/kg
13 | COc1cccc(NC(=O)[C@@H]2CCN3CCC[C@@H]23)c1 (relative stereo) [III] | > 500 mg/kg | > 100 mg/kg | – | 100 mg/kg | – | –
14 | Cc1ccc(C)c(NC(=O)[C@@H]2CCN3CCC[C@@H]23)c1 (relative stereo) [VIII] | > 500 mg/kg | > 100 mg/kg | 100 mg/kg | – | – | –
15 | COc1ccc(NC(=O)[C@@H]2CCN3CCC[C@@H]23)cc1 (relative stereo) [IV] | > 500 mg/kg | > 100 mg/kg | 100 mg/kg | – | – | –
